Experimental data from patent US8007790B2, “Methods for treating polycystic kidney disease (PKD) or other cyst forming diseases” (Stowers Institute for Medical Research, priority 2006, dated 2011).
{P} = phosphate

Legend:
Pkd2+/- mice [1] = test: Cyst formation in Pkd2+/- mice treated with etanercept; format: in vivo; conditions: 25 μg/mouse/week, 10 weeks, n=14; PBS control 25% (n=16); Fisher's exact test p=0.05
Procedure: Chronic inhibition of FIP2 expression by a FIP2 inhibitor such as a TNF-alpha inhibitor may alleviate cyst formation. For the TNF-alpha inhibitor etanercept (AMGEN, Thousand Oaks, Calif.), treatment experiments, mice were intraperitoneally injected weekly, from week 8.5 (day 60) to week 18.5 (day 130), with 25 μg of etanercept per mouse per week or phosphate buffered saline (PBS).
To this end, 8-week old Pkd2+/− mice were treated with either etanercept […] administered at 25 μg/mouse/week), or phosphate buffered saline (PBS) in the control group. […] This frequency is consistent with that reported previously (21%, n=29). Remarkably, none of etanercept-treated mice developed kidney cysts (n=14).

[2] = test system: PC2 localization in inner medullary collecting duct (IMCD) cells; test: Immunofluorescence of PC2 localization in IMCD cells after TNF-alpha induction; format: cell-based
Procedure: […] IMCD (ATCC catalog no. CRL-2123) cells were cultured in Dulbecco's modified Eagle's medium/F12 medium supplemented with 10% (v/v) fetal bovine serum (Invitrogen). Then, these cells were induced with TNF-alpha at a final concentration of 200 ng/ml. Immunofluorescence of the IMD cells was performed before and after 16 hours of TNF-alpha exposure.
Immunofluorescence was carried out as previously described. Li et al, Polycystin-1 and polycystin-2 regulate the cell cycle through the helix-loop-helix inhibitor Id2. Nat Cell Biol, 7(12):1202-12 (2005). Primary antibodies were used at the following dilutions: FIP2 (1:100), PC1 (1:500), PC2 (1:500), and flag (1:500). Secondary antibodies used included goat-anti-rabbit IgG-fluorescein isothiocyanate (Molecular Probes, Eugene, Oreg.) and goat-anti-mouse IgG-Texas Red (1:500 dilution; Molecular Probes). Images were captured on an inverted microscope (Axiovert 200M, Carl Zeiss, inc.) equipped with a spinning disc confocal head (Yogogawa), Argon-Krypton laser system (Prairie Technologies, Inc.), and ORCA-ER CCD camera (Hamamatsu). Images were acquired using the Metamorph software (Molecular Devices) and 3D image reconstruction was performed using the Volocity (Improvision, Inc.) software.
The disruption of PC2 localization by TNF-alpha was further confirmed using immunoprecipitation, western blotting, and a TUNEL Assay. […]

IMCD cells = format: cell-based
Procedure: To confirm that localization of PC2 was not due to cell death, a TUNEL Assay was performed. Cells treated with or without TNF-alpha were fixed with 4% PFA. The TUNEL assay was performed using a fluorescent apoptosis-detection system (R&D systems, Minneapolis, Minn.) according to the manufacturer's instructions. Fixed cells were treated with TACS-nuclease for the positive control.

[3] = test system: cultured embryonic kidneys (E15.5); test: Mouse embryonic kidney organ culture cyst formation assay
Procedure: Embryonic kidneys were dissected in PBS (with calcium and magnesium) plus penicillin-streptomycin-glutamine (GiBCO, Grand Island, N.Y.) from embryos of wild type CD1 mice at E15.5, E16.5 or E17.5 and of C57BL/6 Pkd1+/− or C57BL/6 Pkd2+/− mice or their wild type counterparts at E15.5. The dissected kidneys were cultured at 37° C. in DMEM/F12 containing 2 mM L-glutamine, 10 mM Hepes, 5 μg/ml insulin, 5 μg/ml transferrin, […] selenium, 25 ng/ml prostaglandin E1, 32 pg/ml T3 and 250 IU/ml penicillin-streptomycin. The kidneys were cultured with or without TNF-alpha (Genzyme Diagnostic, Cambridge, Mass.) at different concentrations for 48 hours and then 50 μM 8-Bromo-cyclic AMP (Sigma, St. Louis, Mo.) was added for 5 days. The cultured kidneys were then fixed with 4% paraformaldehyde (PFA) in PBS for 6 hours, washed with PBS twice for 5 minutes each, and transferred to 70% EtOH for short-term storage at room temperature or for more extended storage at 4° C. The fixed kidney samples were subsequently processed for Hematoxylin and Eosin staining following a common histology protocol.
To test the effect of TNF-alpha treatment, the culture conditions were modified using E15.5 kidneys and a low concentration of cAMP, such that there was no cyst formation (0/32 kidneys observed) in the absence of TNF-alpha (see top panel FIGS. 2A and 2B). […] (FIG. 2B). […] Thus, in FIG. 2B, treatment with different concentrations of TNF-alpha for 5 days triggered cyst formation in Pkd2+/− cultured kidneys from E15.5 embryos.

FIP2 [4] = test: Immunoblot of FIP2 level in TNF-alpha treated IMCD cells; format: cell-based
Procedure: (§1) The disruption of PC2 localization by TNF-alpha was further confirmed using immunoprecipitation, western blotting, and a TUNEL Assay. Immunoprecipitation and Western blotting were performed on whole-cell lysates as previously described. Li et al, Polycystin-1 and polycystin-2 regulate the cell cycle through the helix-loop-helix inhibitor Id2. Nat Cell Biol, 7(12):1202-12 (2005). The antibodies used for Western blotting included rabbit polyclonal anti-FIP2 51, rabbit anti-PC2 polyclonal antibody 96525 50, rabbit anti-PC1 polyclonal antibody 96521, rabbit anti-Rab8 polyclonal antibody and rabbit anti-TNFR-I polyclonal antibody. Secondary antibodies used included: goat-anti-rabbit IgG-fluorescein isothiocyanate (FITC Molecular Probes, Eugene, Oreg.), goat-anti-mouse IgG-Texas Red, (1:500 dilution; Molecular Probes). For western blotting, goat-anti-rabbit IgG-horseradish peroxidase (HRP or goat-anti-mouse IgG-HRP, 1:10,000 dilution; Amersham Pharmacia Biotech) were used as secondary antibodies.
(§2) Primary cell cultures were prepared as described previously. The cells were propagated in DMEM/F12 supplemented with 5% FBS, 5 μg/ml insulin, 5 μg/ml transferrin and 5 ng/ml sodium selenite (ITS) and 100 IU/ml penicillin G and 0.1 mg/ml streptomycin. […]

[5] = test system: TNF-alpha receptor (TNFR); test: Immunoblot of TNFR level in TNF-alpha treated IMCD cells; format: cell-based
Procedure: as §1, §2

Pkd2+/- mice [6] = test: Cyst formation in Pkd2+/- mice injected with TNF-alpha; format: in vivo; conditions: 5 μg/mouse/week intraperitoneal, week 4 to week 8.5; control 0 of 10; Fisher's exact test p=0.04
Procedure: The in vitro results described above indicate that TNF-alpha may be a strong physiological modifier of FIP2 that promotes the ADPKD disease phenotype at the organismal level. To test this hypothesis in vivo, 4 week old Pkd2+/− mice were directly injected intra-peritoneally with TNF-alpha (5 μg/mouse, 1 injection/wk) for 4 weeks. Pkd2 mutant mice (Pkd2-183) were kindly provided by Stephan Somlo (Yale University). For TNF-alpha (Genzyme Diagnostic, Cambridge, Mass.) treatment experiments, mice were intraperitoneally injected weekly, from week 4 (day 28) to week 8.5 (day 60), with 5 μg of TNF-alpha per mouse per week or phosphate buffered saline (PBS). 9-17 week old Pkd2+/− mice developed cysts at a frequency of 0.21. Accordingly, the natural frequency of cyst formation may be much lower in the 4 week olds.

FIP2 [7] = test: FIP2 siRNA knock-down of FIP2 expression in IMCD cells (Western blot); format: cell-based; conditions: transfected IMCD cells, comparison of 4 siRNAs
Procedure: (§3) RNAi specific to FIP2 was used to test if the effect of TNF-alpha on PC2 localization was FIP2-dependent. IMCD cells were transfected with siRNA specific for FIP2 to determine if FIP2 caused mislocalization of PC2 upon TNF-alpha induction.
(§4) The transfection was performed using the DharmaFECT siRNA transfection reagent (Dharmacon, Chicago, Ill.) according to the manufacturer's protocol.
(§5) In FIG. 7A, 4 different siRNAs against FIP2 were transfected into IMCD cells. In FIG. 7B, a Western blot was performed as described above using anti-FIP2 antibody to determine FIP2 levels in IMCD cells, which were transfected with siRNA#05 (SEQ ID NO: 2) and #08 (SEQ ID NO: 8) and then treated with TNF-alpha for 16 hours. In FIGS. 7C-7F, immunostaining was performed as described above with 96525 anti-PC2 antibody or YCC2 anti-PC2 antibody at a concentration of 1:500 with IMCD cells transfected with siRNA#08 (SEQ ID NO: 8) before and after TNF-alpha induction.

[8] = test system: PC2 localization in IMCD cells; test: Rescue of PC2 localization by FIP2 siRNA in TNF-alpha treated IMCD cells (immunostaining); format: cell-based
Procedure: as §3, §4
In FIGS. 1C and 1 D, anti-PC2 antibodies (96525 FIG. 1C; YCC2 FIG. 1D) at a concentration of 1:500 were used to determine whether FIP2 siRNA reduces or eliminates FIP2 expression to restore PC2 localization in TNF-alpha treated IMCD cells.
as §5

Substance: etanercept
- mice that developed kidney cysts (Pkd2+/- mice [1]): none

Substance: TNF-alpha
- cells showing loss of PC2 staining at the plasma membrane and cilia ([2]; 200 ng/ml TNF-alpha, 16 hours, anti-PC2 antibody 96525): 100%
- PC2 cilia localization ([2]; TNF-alpha 16 hr, YCC2 anti-PC2 antibody, confocal microscopy): loss of PC2 localization along the primary cilia
- TUNEL staining (cell death) (IMCD cells): negative for TUNEL staining
- lowest TNF-alpha concentration resulting in cyst formation ([3]; Pkd2+/- embryonic kidneys, 5 days): 1.5 ng/mL
- cultured kidneys with cyst formation ([3]; wild type embryonic kidneys, 6.25-12.5 ng/ml TNF-alpha, five days, low cAMP): 20/20
- lowest TNF-alpha concentration resulting in cyst formation ([3]; wild type embryonic kidneys, five days): 6.25 ng/mL
- induction of FIP2 level (FIP2 [4]): 2 fold
- increase of TNFR levels [5]: 35%
- mice that developed unilateral cysts (Pkd2+/- mice [6]): 4 of the 10

Substance: siRNA#08: siRNA against FIP2 (Dharmacon); sense SEQ ID NO: 7, antisense SEQ ID NO: 8 (sense CCAUGAAGCUAAAUAAUCAUU; antisense UGAUUAUUUAGCUUCAUGGUU; sense: RNA, backbone not given here; antisense: RNA, 5' {P}, backbone not given here)
- effect on FIP2 expression (FIP2 [7]): strongest effect
- PC2 localization after TNF-alpha induction ([8]; immunostaining with 96525 anti-PC2 antibody): rescued the TNF-alpha effect on PC2 localization
- PC2 cilia localization after TNF-alpha induction ([8]; immunostaining with YCC2 anti-PC2 antibody): rescued the PC2 cilia localization
